# According to PubChem BioAssay AID1963874 (Molecular Pharmacology Branch, DTP, NCI, 2024):
# Where “and” joins values, the source holds several entries; their conditions need not be identical. Equal values may be shown once.
# Tested on: 253994-281-T-J1-PDC KRAS-mutant spheroids with HUVEC/MSC, viability
# Assay: Anticancer human tumor 253994-281-T-J1-PDC patient-derived colorectal carcinoma cell line growth inhibition [KRAS2]
# Conditions: for viability, T/C: stronger effect = lower value
# In short: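 Combination screen of spheroid viability in tumor-cell co-cultures with endothelial (HUVEC) and mesenchymal stem cell stroma. Each agent was tested in half-log dilutions, topping at clinical Cmax or at 10 microM without a known Cmax.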
# [1] = curve of first compound, second compound 0.1 µM
# [2] = curve of first compound, second compound 0.316 µM
# [3] = curve of first compound, second compound 1 µM
# [4] = curve of first compound, second compound 3.16 µM
# [5] = second compound 0.1 µM, first compound 0.0316 µM
# [6] = second compound 0.1 µM, first compound 0.1 µM
# [7] = second compound 0.316 µM, first compound 0.0316 µM
# [8] = second compound 0.316 µM, first compound 0.1 µM
# [9] = second compound 1 µM, first compound 0.0316 µM
# [10] = second compound 1 µM, first compound 0.1 µM
# [11] = second compound 3.16 µM, first compound 0.0316 µM
# [12] = second compound 3.16 µM, first compound 0.1 µM
# 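Note: spheroids exposed to agents for seven days before readout.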
# 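Throughout, for viability, T/C: percent of DMSO vehicle control viability.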
structure (smiles),measurement,setting,value
CCN1CCN(Cc2ccc(Nc3ncc(F)c(-c4cc(F)c5nc(C)n(C(C)C)c5c4)n3)nc2)CC1,"viability, T/C",compound 0.00316 µM,101% and 90.3% and 102% (2×)
same,"viability, T/C",compound 0.01 µM,99.6% [middle of 5 runs]
same,"viability, T/C",compound 0.0316 µM,89.5% [middle of 5 runs]
same,"viability, T/C",compound 0.1 µM,84.2% [middle of 5 runs]
same,"viability, T/C",compound 0.316 µM,77.4% [middle of 5 runs]
same,"viability, T/C",compound 1 µM,51.2% [middle of 5 runs]
same,IC50,curve of compound,852 nM and > 1000 nM and 983 nM
CC(C)NCC(C(=O)N1CCN(c2ncnc3c2C(C)CC3O)CC1)c1ccc(Cl)cc1 (stereo not given),"viability, T/C",compound 0.0316 µM,102% [middle of 5 runs]
same,"viability, T/C",compound 0.1 µM,107% [middle of 5 runs]
same,"viability, T/C",compound 1 µM,97.2% [middle of 5 runs]
same,"viability, T/C",compound 10 µM,89.9% [middle of 5 runs]
same,IC50,curve of compound,> 10000 nM
COc1cc2nccc(Oc3ccc(NC(=O)C4(C(=O)Nc5ccc(F)cc5)CC4)cc3)c2cc1OC + C=CC(=O)N1CCN(c2nc(OCC3CCCN3C)nc3c2CCN(c2cccc4cccc(C)c24)C3)CC1CC#N,IC50,"curve of first compound, second compound 0.0316 µM",> 10000 nM
same,IC50,[1],> 10000 nM
same,IC50,[2],> 10000 nM
same,IC50,[3],7140 nM
same,IC50,[4],166 nM
same,"viability, T/C","second compound 0.0316 µM, first compound 0.0316 µM",88.8%
same,"viability, T/C","second compound 0.0316 µM, first compound 0.1 µM",104%
same,"viability, T/C","second compound 0.0316 µM, first compound 0.316 µM",81.8%
same,"viability, T/C","second compound 0.0316 µM, first compound 1 µM",91.1%
same,"viability, T/C","second compound 0.0316 µM, first compound 3.16 µM",92.2%
same,"viability, T/C","second compound 0.0316 µM, first compound 10 µM",69.8%
same,"viability, T/C",[5],101%
same,"viability, T/C",[6],101%
same,"viability, T/C","second compound 0.1 µM, first compound 0.316 µM",80.4%
same,"viability, T/C","second compound 0.1 µM, first compound 1 µM",79.5%
same,"viability, T/C","second compound 0.1 µM, first compound 3.16 µM",87.6%
same,"viability, T/C","second compound 0.1 µM, first compound 10 µM",71.1%
same,"viability, T/C",[7],97.8%
same,"viability, T/C",[8],99.5%
same,"viability, T/C","second compound 0.316 µM, first compound 0.316 µM",89.6%
same,"viability, T/C","second compound 0.316 µM, first compound 1 µM",97.6%
same,"viability, T/C","second compound 0.316 µM, first compound 3.16 µM",87.5%
same,"viability, T/C","second compound 0.316 µM, first compound 10 µM",50.3%
same,"viability, T/C",[9],97.1%
same,"viability, T/C",[10],96.5%
same,"viability, T/C","second compound 1 µM, first compound 0.316 µM",84.8%
same,"viability, T/C","second compound 1 µM, first compound 1 µM",92.2%
same,"viability, T/C","second compound 1 µM, first compound 3.16 µM",88.9%
same,"viability, T/C","second compound 1 µM, first compound 10 µM",33.9%
same,"viability, T/C",[11],62.7%
same,"viability, T/C",[12],65.5%
same,"viability, T/C","second compound 3.16 µM, first compound 0.316 µM",34.6%
same,"viability, T/C","second compound 3.16 µM, first compound 1 µM",20.4%
same,"viability, T/C","second compound 3.16 µM, first compound 3.16 µM",18.9%
same,"viability, T/C","second compound 3.16 µM, first compound 10 µM",0.21%
CN(C)C/C=C/C(=O)Nc1cc2c(Nc3ccc(F)c(Cl)c3)ncnc2cc1O[C@H]1CCOC1 + C=CC(=O)N1CCN(c2nc(=O)n(-c3c(C)ccnc3C(C)C)c3nc(-c4c(O)cccc4F)c(F)cc23)C(C)C1,IC50,[1],> 100 nM
same,IC50,[2],> 100 nM
same,IC50,[3],> 100 nM
same,IC50,[4],> 100 nM
same,IC50,"curve of first compound, second compound 10 µM",> 100 nM
same,"viability, T/C","second compound 0.1 µM, first compound 0.000316 µM",110%
same,"viability, T/C","second compound 0.1 µM, first compound 0.001 µM",116%
same,"viability, T/C","second compound 0.1 µM, first compound 0.00316 µM",84.9%
same,"viability, T/C","second compound 0.1 µM, first compound 0.01 µM",81.3%
same,"viability, T/C",[5],84.9%
same,"viability, T/C",[6],61.9%
same,"viability, T/C","second compound 0.316 µM, first compound 0.000316 µM",105%
same,"viability, T/C","second compound 0.316 µM, first compound 0.001 µM",86.5%
same,"viability, T/C","second compound 0.316 µM, first compound 0.00316 µM",80.4%
same,"viability, T/C","second compound 0.316 µM, first compound 0.01 µM",90.7%
same,"viability, T/C",[7],68.9%
same,"viability, T/C",[8],63%
same,"viability, T/C","second compound 1 µM, first compound 0.000316 µM",87.1%
same,"viability, T/C","second compound 1 µM, first compound 0.001 µM",96.1%
same,"viability, T/C","second compound 1 µM, first compound 0.00316 µM",79.9%
same,"viability, T/C","second compound 1 µM, first compound 0.01 µM",70.8%
same,"viability, T/C",[9],64.5%
same,"viability, T/C",[10],85%
same,"viability, T/C","second compound 3.16 µM, first compound 0.000316 µM",102%
same,"viability, T/C","second compound 3.16 µM, first compound 0.001 µM",97.8%
same,"viability, T/C","second compound 3.16 µM, first compound 0.00316 µM",91.3%
same,"viability, T/C","second compound 3.16 µM, first compound 0.01 µM",88.7%
same,"viability, T/C",[11],78.8%
same,"viability, T/C",[12],69.2%
same,"viability, T/C","second compound 10 µM, first compound 0.000316 µM",101%
same,"viability, T/C","second compound 10 µM, first compound 0.001 µM",102%
same,"viability, T/C","second compound 10 µM, first compound 0.00316 µM",79.7%
same,"viability, T/C","second compound 10 µM, first compound 0.01 µM",83.6%
same,"viability, T/C","second compound 10 µM, first compound 0.0316 µM",73.5%
same,"viability, T/C","second compound 10 µM, first compound 0.1 µM",68.7%
C=CC(=O)N1CCN(c2nc(OCC3CCCN3C)nc3c2CCN(c2cccc4cccc(C)c24)C3)CC1CC#N (stereo not given),"viability, T/C",compound 0.0316 µM,94.7% [middle of 17 runs]
same,"viability, T/C",compound 0.1 µM,93.6% [middle of 17 runs]
same,IC50,"compound alone, run of 09/02/2021",> 3160 nM
